Data as given in ChEMBL document CHEMBL4725368, “Novel C-7 carbon substituted fourth generation fluoroquinolones targeting N. Gonorrhoeae infections” (Bioorg Med Chem Lett, 2020).
≈ marks a conversion by molar mass, not a printed value.

Tests used:
Pseudomonas aeruginosa = assay: Antibacterial activity against Pseudomonas aeruginosa PAO1 assessed as reduction in bacterial growth by CLSI protocol based microdilution method; assay type: functional
Neisseria gonorrhoeae [1] = assay: Antibacterial activity against Neisseria gonorrhoeae ATCC 49226 assessed as reduction in bacterial growth by CLSI protocol based microdilution method; assay type: functional
Neisseria gonorrhoeae [2] = assay: Antibacterial activity against fluoroquinolone-resistant Neisseria gonorrhoeae WHO L harboring multiple point mutations at DNA gyrase and topoisomerase IV and porB1b mutation assessed as reduction in bacterial growth by CLSI protocol based microdilution method; assay type: functional
Acinetobacter baumannii = assay: Antibacterial activity against Acinetobacter baumannii ATCC 19606 assessed as reduction in bacterial growth by CLSI protocol based microdilution method; assay type: functional; settings: ATCC 19606 = CIP 70.34 = JCM 6841
Klebsiella pneumoniae = assay: Antibacterial activity against Klebsiella pneumoniae ATCC 700603 assessed as reduction in bacterial growth by CLSI protocol based microdilution method; assay type: functional
Escherichia coli = assay: Antibacterial activity against Escherichia coli ATCC 25922 assessed as reduction in bacterial growth by CLSI protocol based microdilution method; assay type: functional
Staphylococcus aureus = assay: Antibacterial activity against Staphylococcus aureus ATCC 29213 assessed as reduction in bacterial growth by CLSI protocol based microdilution method; assay type: functional
Enterococcus faecalis = assay: Antibacterial activity against Enterococcus faecalis ATCC 29212 assessed as reduction in bacterial growth by CLSI protocol based microdilution method; assay type: functional
[3] = Intrinsic clearance in human liver microsomes; assay type: ADME, Microsome; settings: read-out: CLH
[4] = Intrinsic clearance in human hepatocytes assessed per 10^6 cells; assay type: ADME, cell-based, Hepatocyte; settings: read-out: CLH
[5] = Acid dissociation constant, pKa of the compound; assay type: physicochemical
hERG (KCNH2) [6] = target: T1, hERG (KCNH2) (Homo sapiens, UniProt Q12809); assay: Inhibition of human ERG at 30 uM relative to control
Cytochrome P450 1A2 = target: T2, Cytochrome P450 1A2 (Homo sapiens, UniProt P05177)
T2 sequence (P05177 whole entry): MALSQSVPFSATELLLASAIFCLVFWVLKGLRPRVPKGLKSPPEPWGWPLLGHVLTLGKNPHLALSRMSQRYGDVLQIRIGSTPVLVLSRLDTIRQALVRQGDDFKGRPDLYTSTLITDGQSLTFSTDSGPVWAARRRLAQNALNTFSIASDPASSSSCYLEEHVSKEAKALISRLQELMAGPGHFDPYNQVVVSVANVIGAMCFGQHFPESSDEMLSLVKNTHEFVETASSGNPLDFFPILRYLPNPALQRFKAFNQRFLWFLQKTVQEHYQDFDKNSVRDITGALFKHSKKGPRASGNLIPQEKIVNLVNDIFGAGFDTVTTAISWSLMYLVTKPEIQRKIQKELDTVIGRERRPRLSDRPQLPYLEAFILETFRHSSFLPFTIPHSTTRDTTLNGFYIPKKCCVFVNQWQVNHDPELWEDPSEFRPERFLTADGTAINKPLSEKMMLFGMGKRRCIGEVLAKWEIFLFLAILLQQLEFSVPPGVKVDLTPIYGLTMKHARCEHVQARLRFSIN
Description: Inhibition of CYP1A2 (unknown origin)

Cytochrome P450 2C19 = Cytochrome P450 2C19 (Homo sapiens, UniProt P33261)
Description: Inhibition of CYP2C19 (unknown origin)

Cytochrome P450 2C9 = Cytochrome P450 2C9 (Homo sapiens, UniProt P11712)
Description: Inhibition of CYP2C9 (unknown origin)

Cytochrome P450 2D6 = Cytochrome P450 2D6 (Homo sapiens, UniProt P10635)
Description: Inhibition of CYP2D6 (unknown origin)

Cytochrome P450 3A4 = Cytochrome P450 3A4 (Homo sapiens, UniProt P08684)
Description: Inhibition of CYP3A4 (unknown origin)

in vitro = settings: human, plasma
Description: Protein binding in human plasma assessed as free fraction

physchem [7] = assay: physchem
Description: Kinetic solubility of the compound

physchem [8] = settings: octanol/water, pH 7.4
Description: Distribution coefficient, logD of the compound at pH 7.4

hERG (KCNH2) [9] = target: T1, hERG (KCNH2); assay: Inhibition of human ERG at 100 uM relative to control
[10] = Oral bioavailability in human at 450 mg measured every 12 hrs; assay type: ADME, organism-based; settings: in vivo
Neisseria gonorrhoeae [11] = assay: Antibacterial activity against Neisseria gonorrhoeae assessed as reduction in bacterial growth; assay type: functional
[12] = target: Voltage-gated inwardly rectifying potassium channel KCNH2 (Homo sapiens, UniProt Q12809); assay: Inhibition of human ERG up to 185 uM
[13] = Oral bioavailability in human at 400 mg measured every 12 hrs; assay type: ADME, organism-based; settings: in vivo

T1 sequence (Q12809 whole entry): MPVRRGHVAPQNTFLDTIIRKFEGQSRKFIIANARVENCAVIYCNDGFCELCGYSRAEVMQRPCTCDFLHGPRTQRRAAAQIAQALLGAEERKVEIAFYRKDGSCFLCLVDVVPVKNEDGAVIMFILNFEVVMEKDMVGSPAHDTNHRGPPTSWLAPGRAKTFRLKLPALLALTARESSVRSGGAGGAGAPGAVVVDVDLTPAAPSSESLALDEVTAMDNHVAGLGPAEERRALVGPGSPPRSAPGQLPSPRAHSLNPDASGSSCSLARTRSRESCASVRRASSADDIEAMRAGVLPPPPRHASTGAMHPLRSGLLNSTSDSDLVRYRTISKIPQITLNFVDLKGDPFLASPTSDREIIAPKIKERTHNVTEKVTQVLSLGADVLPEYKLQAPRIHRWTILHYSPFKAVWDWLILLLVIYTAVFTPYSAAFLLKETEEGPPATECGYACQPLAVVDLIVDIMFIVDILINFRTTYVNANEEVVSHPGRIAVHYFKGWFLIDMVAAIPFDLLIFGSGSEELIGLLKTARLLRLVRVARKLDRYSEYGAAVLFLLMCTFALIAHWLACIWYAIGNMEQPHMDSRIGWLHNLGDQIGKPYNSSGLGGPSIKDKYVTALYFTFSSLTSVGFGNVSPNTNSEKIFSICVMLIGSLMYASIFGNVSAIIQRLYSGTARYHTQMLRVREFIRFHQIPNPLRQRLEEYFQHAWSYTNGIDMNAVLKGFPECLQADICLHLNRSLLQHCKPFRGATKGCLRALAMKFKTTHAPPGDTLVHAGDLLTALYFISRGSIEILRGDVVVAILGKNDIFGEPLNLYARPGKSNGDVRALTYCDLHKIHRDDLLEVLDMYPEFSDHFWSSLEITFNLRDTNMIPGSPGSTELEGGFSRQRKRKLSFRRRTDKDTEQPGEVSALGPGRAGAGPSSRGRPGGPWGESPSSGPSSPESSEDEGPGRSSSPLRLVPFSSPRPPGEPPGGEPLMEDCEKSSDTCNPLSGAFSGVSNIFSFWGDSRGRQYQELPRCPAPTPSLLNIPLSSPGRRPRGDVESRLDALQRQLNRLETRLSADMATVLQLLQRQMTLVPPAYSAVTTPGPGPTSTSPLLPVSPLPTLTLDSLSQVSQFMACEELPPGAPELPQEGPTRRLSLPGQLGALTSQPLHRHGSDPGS
Cytochrome P450 2C9, sequence (P11712 whole entry): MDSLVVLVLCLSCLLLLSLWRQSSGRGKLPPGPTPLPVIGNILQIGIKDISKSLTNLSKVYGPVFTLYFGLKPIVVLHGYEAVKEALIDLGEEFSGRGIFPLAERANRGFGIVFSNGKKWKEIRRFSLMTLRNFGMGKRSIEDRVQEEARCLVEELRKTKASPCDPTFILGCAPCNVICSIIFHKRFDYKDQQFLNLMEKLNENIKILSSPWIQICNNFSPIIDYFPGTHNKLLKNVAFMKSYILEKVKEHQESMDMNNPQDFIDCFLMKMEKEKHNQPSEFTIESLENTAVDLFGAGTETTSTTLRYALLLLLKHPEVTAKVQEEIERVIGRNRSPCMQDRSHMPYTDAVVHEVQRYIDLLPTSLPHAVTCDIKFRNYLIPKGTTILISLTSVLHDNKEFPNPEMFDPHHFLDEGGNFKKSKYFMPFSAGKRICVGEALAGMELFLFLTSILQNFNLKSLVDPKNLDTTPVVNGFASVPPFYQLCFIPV
Cytochrome P450 3A4, sequence (P08684 whole entry): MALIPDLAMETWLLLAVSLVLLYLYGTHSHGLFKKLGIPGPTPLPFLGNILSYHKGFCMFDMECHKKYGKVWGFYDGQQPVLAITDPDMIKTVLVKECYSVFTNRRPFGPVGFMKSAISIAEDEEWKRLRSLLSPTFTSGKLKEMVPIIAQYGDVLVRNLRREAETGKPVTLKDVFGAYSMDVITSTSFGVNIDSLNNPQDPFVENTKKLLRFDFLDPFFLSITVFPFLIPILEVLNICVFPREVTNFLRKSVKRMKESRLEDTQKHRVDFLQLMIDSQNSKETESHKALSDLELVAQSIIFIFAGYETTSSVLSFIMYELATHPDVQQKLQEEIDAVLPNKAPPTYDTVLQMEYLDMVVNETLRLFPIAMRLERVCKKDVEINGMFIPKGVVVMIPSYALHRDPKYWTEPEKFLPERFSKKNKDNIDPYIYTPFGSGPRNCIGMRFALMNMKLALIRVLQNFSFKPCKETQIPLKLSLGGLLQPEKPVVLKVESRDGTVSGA
Cytochrome P450 2D6, sequence (P10635 whole entry): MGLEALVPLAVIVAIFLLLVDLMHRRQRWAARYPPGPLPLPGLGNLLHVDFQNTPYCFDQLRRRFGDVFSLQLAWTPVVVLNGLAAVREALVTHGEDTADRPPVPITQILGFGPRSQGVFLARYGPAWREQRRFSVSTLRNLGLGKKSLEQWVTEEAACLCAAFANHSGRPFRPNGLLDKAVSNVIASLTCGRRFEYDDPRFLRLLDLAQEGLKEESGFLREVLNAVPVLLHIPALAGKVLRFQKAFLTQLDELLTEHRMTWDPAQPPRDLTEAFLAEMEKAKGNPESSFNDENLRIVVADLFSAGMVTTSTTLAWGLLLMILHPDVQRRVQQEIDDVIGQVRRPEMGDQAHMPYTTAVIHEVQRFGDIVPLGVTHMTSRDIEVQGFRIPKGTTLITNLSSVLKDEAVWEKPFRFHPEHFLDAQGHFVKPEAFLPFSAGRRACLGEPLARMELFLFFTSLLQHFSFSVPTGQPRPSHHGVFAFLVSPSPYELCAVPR
Cytochrome P450 2C19, sequence (P33261 whole entry): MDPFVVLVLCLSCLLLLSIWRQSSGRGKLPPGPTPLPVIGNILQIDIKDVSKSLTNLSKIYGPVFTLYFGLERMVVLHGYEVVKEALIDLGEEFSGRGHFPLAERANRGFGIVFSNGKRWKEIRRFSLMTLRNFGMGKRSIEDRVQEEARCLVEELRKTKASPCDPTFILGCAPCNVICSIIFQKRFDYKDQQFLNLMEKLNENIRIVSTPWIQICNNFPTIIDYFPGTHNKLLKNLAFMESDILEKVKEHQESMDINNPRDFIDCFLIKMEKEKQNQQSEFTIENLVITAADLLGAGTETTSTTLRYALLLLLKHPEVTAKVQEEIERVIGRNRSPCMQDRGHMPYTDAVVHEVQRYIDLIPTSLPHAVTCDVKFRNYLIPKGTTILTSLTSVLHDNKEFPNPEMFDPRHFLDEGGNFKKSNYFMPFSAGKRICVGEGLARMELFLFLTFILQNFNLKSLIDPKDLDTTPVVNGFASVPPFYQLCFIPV
Voltage-gated inwardly rectifying potassium channel KCNH2, sequence (Q12809 whole entry): as the sequence (Q12809 whole entry) above

| SMILES | MIC (Pseudomonas aeruginosa) | MIC (Neisseria gonorrhoeae [1]) | MIC (Neisseria gonorrhoeae [2]) | MIC (Acinetobacter baumannii) | MIC (Klebsiella pneumoniae) | MIC (Escherichia coli) | MIC (Staphylococcus aureus) | MIC (Enterococcus faecalis) | microsomal CLint [3] | hepatocyte CLint [4] | pKa [5] | IC50 (Cytochrome P450 1A2) | IC50 (Cytochrome P450 2C19) | IC50 (Cytochrome P450 2C9) | IC50 (Cytochrome P450 2D6) | IC50 (Cytochrome P450 3A4) | fraction unbound (in vitro) | solubility kinetic (physchem [7]) | logD (physchem [8]) | inhibition at 100 µM (hERG (KCNH2) [9]) | other results |
| --- | --- | --- | --- | --- | --- | --- | --- | --- | --- | --- | --- | --- | --- | --- | --- | --- | --- | --- | --- | --- | --- |
| Nc1nc(-n2cc(C(=O)O)c(=O)c3cc(F)c(N4CC(N)C4)c(Cl)c32)c(F)cc1F | 0.12 µg/mL (≈ 0.273 µM) | 0.007 µg/mL (≈ 0.0159 µM) | 0.06 µg/mL (≈ 0.136 µM) | 2 µg/mL (≈ 4.55 µM) | 0.25 µg/mL (≈ 0.568 µM) | 0.001 µg/mL (≈ 0.00227 µM) | 0.003 µg/mL (≈ 0.00682 µM) | 0.12 µg/mL (≈ 0.273 µM) | < 5 µL/min/mg | 3 µL/min/1e6 cells | 5.33 | > 50 µM | > 50 µM | 12.7 µM | > 50 µM | 13.6 µM | 0.297 | 3.6 µM (≈ 1.58 µg/mL) | -0.3 |  | inhibition at 30 µM (hERG (KCNH2) [6]): 6% |
| Nc1nc(-n2cc(C(=O)O)c(=O)c3cc(F)c([C@H]4C[C@H](O)C4)c(Cl)c32)c(F)cc1F | 2 µg/mL (≈ 4.55 µM) | 0.01 µg/mL (≈ 0.0227 µM) | 0.12 µg/mL (≈ 0.273 µM) | 64 µg/mL (≈ 146 µM) | 8 µg/mL (≈ 18.2 µM) | 0.12 µg/mL (≈ 0.273 µM) | 0.03 µg/mL (≈ 0.0682 µM) | 0.5 µg/mL (≈ 1.14 µM) | < 5 µL/min/mg | 6.8 µL/min/1e6 cells | 5.04 | > 50 µM | > 50 µM | 41.7 µM | > 50 µM | > 50 µM | 0.105 | 59.3 µM (≈ 26.1 µg/mL) | 0.3 | 18% |  |
| Nc1nc(-n2cc(C(=O)O)c(=O)c3cc(F)c([C@H]4C[C@@H](O)C4)c(Cl)c32)c(F)cc1F | 4 µg/mL (≈ 9.1 µM) | 0.06 µg/mL (≈ 0.136 µM) | 0.12 µg/mL (≈ 0.273 µM) | 16 µg/mL (≈ 36.4 µM) | 4 µg/mL (≈ 9.1 µM) | 0.12 µg/mL (≈ 0.273 µM) | 0.03 µg/mL (≈ 0.0682 µM) | 0.25 µg/mL (≈ 0.568 µM) | < 5 µL/min/mg | 9.2 µL/min/1e6 cells | 4.96 | > 50 µM | > 50 µM | > 50 µM | > 50 µM | 24.8 µM | 0.124 | 44.8 µM (≈ 19.7 µg/mL) | 0.3 | 15% |  |
| Nc1nc(-n2cc(C(=O)O)c(=O)c3cc(F)c(N4CC(O)C4)c(Cl)c32)c(F)cc1F [DELAFLOXACIN] | 1 µg/mL (≈ 2.27 µM) | 0.06 µg/mL (≈ 0.136 µM) | 0.03 µg/mL (≈ 0.0681 µM) | 8 µg/mL (≈ 18.2 µM) | 0.25 µg/mL (≈ 0.567 µM) | 0.01 µg/mL (≈ 0.0227 µM) | 0.003 µg/mL (≈ 0.00681 µM) | 0.03 µg/mL (≈ 0.0681 µM) | < 5 µL/min/mg | 3 µL/min/1e6 cells | 5.47 | > 50 µM | > 50 µM | > 50 µM | > 50 µM |  | 0.149 | 58.1 µM (≈ 25.6 µg/mL) | 0.7 | 19% | bioavailability [10]: 59%; MIC (Neisseria gonorrhoeae [11]): ≥ 0.008 µg/mL; MIC90 (Neisseria gonorrhoeae [11]): 0.125 µg/mL (≈ 0.284 µM); inhibition (INH) [12]: Not Active |
| COc1c(N2C[C@@H]3CCCN[C@@H]3C2)c(F)cc2c(=O)c(C(=O)O)cn(C3CC3)c12 [MOXIFLOXACIN] |  |  |  |  |  |  |  |  |  |  |  |  |  |  |  |  |  |  |  |  | bioavailability [13]: 92% |
